Measured values taken from ChEMBL document CHEMBL1148352, “1,2,4-triazolo[4,3-a]quinoxalin-1-one moiety as an attractive scaffold to develop new potent and selective human A3 adenosine receptor antagonists: synthesis, pharmacological, and ligand-receptor modeling studies” (J Med Chem, 2004).

Tests used:
Adenosine receptor A3 [1] = molecular target: T1, Adenosine receptor A3 (Homo sapiens, UniProt P0DMS8); assay: biochemical
T1 sequence (P0DMS8 whole entry): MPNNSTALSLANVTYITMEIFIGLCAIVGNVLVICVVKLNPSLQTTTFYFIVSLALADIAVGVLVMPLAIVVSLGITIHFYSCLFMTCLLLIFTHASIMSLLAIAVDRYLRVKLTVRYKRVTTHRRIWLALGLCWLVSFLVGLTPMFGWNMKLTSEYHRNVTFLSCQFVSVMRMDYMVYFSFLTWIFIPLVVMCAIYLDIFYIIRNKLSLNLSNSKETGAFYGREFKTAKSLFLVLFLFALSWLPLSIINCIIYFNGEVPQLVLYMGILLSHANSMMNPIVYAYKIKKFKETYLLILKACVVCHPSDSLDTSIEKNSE
Description: Binding affinity against human adenosine A3 receptor expressed in CHO cells by [125I]AB-MECA displacement.

Adenosine receptor A1 [2] = molecular target: T2, Adenosine receptor A1 (Bos taurus, UniProt P28190)
T2 sequence (P28190 whole entry): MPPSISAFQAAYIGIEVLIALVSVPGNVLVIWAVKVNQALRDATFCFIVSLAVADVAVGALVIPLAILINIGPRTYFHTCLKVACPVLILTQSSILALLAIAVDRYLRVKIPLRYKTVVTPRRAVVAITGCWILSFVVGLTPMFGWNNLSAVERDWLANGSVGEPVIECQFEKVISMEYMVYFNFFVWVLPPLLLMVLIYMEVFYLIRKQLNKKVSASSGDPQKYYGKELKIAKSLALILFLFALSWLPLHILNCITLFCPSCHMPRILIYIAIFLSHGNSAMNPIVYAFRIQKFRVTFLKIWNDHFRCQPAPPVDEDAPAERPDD
Description: Binding affinity against adenosine A1 receptor in bovine brain membranes by [3H]CHA displacement.

[3] = molecular target: Adenosine receptor A2a (Bos taurus)
[4] = molecular target: T3, Adenosine receptor A1 (Homo sapiens) (UniProt P30542); assay: Percent inhibition against human adenosine A1 receptor expressed in CHO cells using [3H]CHA at 10 uM; format: cell-based
T3 sequence (whole entry): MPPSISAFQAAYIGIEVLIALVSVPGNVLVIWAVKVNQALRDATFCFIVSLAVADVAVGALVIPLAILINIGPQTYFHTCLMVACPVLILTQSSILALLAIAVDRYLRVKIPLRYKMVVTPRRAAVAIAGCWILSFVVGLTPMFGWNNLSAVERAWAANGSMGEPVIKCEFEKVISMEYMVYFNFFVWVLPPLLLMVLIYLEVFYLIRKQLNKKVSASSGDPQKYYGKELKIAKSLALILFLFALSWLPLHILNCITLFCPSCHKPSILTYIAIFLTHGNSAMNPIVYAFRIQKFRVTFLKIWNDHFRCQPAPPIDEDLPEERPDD

Adenosine receptor A1 [5] = molecular target: T4, Adenosine receptor A1 (Homo sapiens, UniProt P30542); assay: biochemical
T4 sequence (P30542 whole entry): T3 sequence (whole entry)
Description: Binding affinity against human adenosine A1 receptor expressed in CHO cells using [3H]CHA

[6] = molecular target: T5, Adenosine receptor A3 (Homo sapiens) (UniProt P0DMS8); assay: Percent inhibition against human adenosine A3 receptor expressed in CHO cells using [125I]AB-MECA at 1 uM; format: cell-based
T5 sequence (whole entry): T1 sequence (P0DMS8 whole entry)

[7] = tested on: Adenosine receptor A2a (Bos taurus); assay: Inhibition of [3H]-CGS- 21680 binding to adenosine A2a receptor of bovine striatal membranes
[8] = molecular target: T6, Adenosine receptor A1 (Bos taurus) (UniProt P28190); assay: Inhibition of [3H]CHA binding to adenosine A1 receptor of bovine brain membranes; format: cell membranes
T6 sequence (whole entry): T2 sequence (P28190 whole entry)

[9] = molecular target: Adenosine receptors; A1 & A3 (Homo sapiens) (UniProt P30542+P0DMS8); assay: Selectivity as ratio of affinity against human adenosine A3 and A1 receptors; format: protein assay
[10] = molecular target: Adenosine receptors; A2a & A3 (Homo sapiens) (UniProt P0DMS8+P29274); assay: Selectivity as ratio of affinity against human adenosine A3 and A2A receptors; format: protein assay
Adenosine receptor A3 [11] = molecular target: T1, Adenosine receptor A3; assay: Effective concentration for inhibition of NECA-stimulated [35S]GTP-gamma-S, binding at human adenosine A3 receptor expressed in CHO cells; format: functional, cell-based

Sequence of Adenosine receptors; A2a & A3 (Homo sapiens) (P29274 whole entry, looked up, one chain of several): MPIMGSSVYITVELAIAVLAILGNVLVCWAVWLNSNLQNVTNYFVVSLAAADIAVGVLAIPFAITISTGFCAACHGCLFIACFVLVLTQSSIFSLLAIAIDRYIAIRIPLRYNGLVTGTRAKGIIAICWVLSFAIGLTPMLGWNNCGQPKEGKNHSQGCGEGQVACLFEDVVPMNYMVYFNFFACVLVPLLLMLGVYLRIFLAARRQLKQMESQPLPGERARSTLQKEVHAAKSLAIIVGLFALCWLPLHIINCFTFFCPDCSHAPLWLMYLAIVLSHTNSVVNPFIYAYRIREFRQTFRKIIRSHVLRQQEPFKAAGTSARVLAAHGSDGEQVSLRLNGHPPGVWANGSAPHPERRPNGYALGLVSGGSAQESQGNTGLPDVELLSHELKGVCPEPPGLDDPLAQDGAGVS

Compound	Ki (Adenosine receptor A3 [1]) [nM]	Ki (Adenosine receptor A1 [2]) [nM]	I [7] [%]	I [8] [%]	also measured
Nc1ccc(-n2nc3c(=O)[nH]c4ccccc4n3c2=O)cc1	3600				
Nc1nc2ccccc2n2c(=O)n(-c3ccc(O)cc3)nc12	73.2	116			Ki [3]: 80 nM
COc1ccc(-n2nc3c(=O)[nH]c4ccccc4n3c2=O)cc1					I [4]: 42%
O=c1[nH]c2ccccc2n2c(=O)n(-c3ccc(O)cc3)nc12	47	30.6			Ki (Adenosine receptor A1 [5]): 168 nM
O=c1[nH]c2c([N+](=O)[O-])cccc2n2c(=O)n(-c3ccc([N+](=O)[O-])cc3)nc12		91	0		I [6]: 24%
Nc1nc2c([N+](=O)[O-])cccc2n2c(=O)n(-c3ccccc3)nc12	4.75	82			Ki (Adenosine receptor A1 [5]): 870 nM
Nc1cccc2c1[nH]c(=O)c1nn(-c3ccc(O)cc3)c(=O)n12		996	36		I [6]: 39%
O=c1[nH]c2ccccc2n2c(=O)n(-c3ccc([N+](=O)[O-])cc3)nc12	0.6		21	19	Selectivity ratio [9]: > 16600; Selectivity ratio [10]: > 16600; EC50 (Adenosine receptor A3 [11]): 5.4 nM; I [4]: 32%
CN(C)c1ccc(-n2nc3c(=O)[nH]c4ccccc4n3c2=O)cc1	429	578	0		
CCOc1ccc(-n2nc3c(N)nc4ccccc4n3c2=O)cc1	203	537			Ki [3]: 13000 nM
Nc1ccc(-n2nc3c(N)nc4ccccc4n3c2=O)cc1	335	48			Ki [3]: 3.6 nM
CC(=O)Oc1ccc(-n2nc3c(=O)[nH]c4ccccc4n3c2=O)cc1	11.2	26			Ki (Adenosine receptor A1 [5]): 320 nM; Ki [3]: 9700 nM
COc1ccc(-n2nc3c(N)nc4ccccc4n3c2=O)cc1					Ki (Adenosine receptor A1 [5]): 69 nM
Nc1nc2c([N+](=O)[O-])cccc2n2c(=O)n(-c3ccc([N+](=O)[O-])cc3)nc12		155	2.7		I [6]: 30%
CC(=O)Oc1ccc(-n2nc3c(=O)[nH]c4c([N+](=O)[O-])cccc4n3c2=O)cc1			0	21.3	I [6]: 20%
O=c1[nH]c2c([N+](=O)[O-])cccc2n2c(=O)n(-c3ccc(O)cc3)nc12			4	38	I [6]: 21%
Nc1nc2ccccc2n2c(=O)n(-c3ccc([N+](=O)[O-])cc3)nc12			31	11.9	I [6]: 28%
COc1ccc(-n2nc3c(N)nc4c([N+](=O)[O-])cccc4n3c2=O)cc1	47		16.5	19	I [4]: 45%
COc1ccc(-n2nc3c(N)nc4c(N)cccc4n3c2=O)cc1	22			38	Ki (Adenosine receptor A1 [5]): 186 nM; Ki [3]: 1050 nM
COc1ccc(-n2nc3c(=O)[nH]c4c(N)cccc4n3c2=O)cc1	83		23	16	
Nc1cccc2c1nc(N)c1nn(-c3ccc(O)cc3)c(=O)n12	176	61			Ki [3]: 181 nM
CCOc1ccc(-n2nc3c(=O)[nH]c4ccccc4n3c2=O)cc1	175				
COc1ccc(-n2nc3c(=O)[nH]c4c([N+](=O)[O-])cccc4n3c2=O)cc1			14	25	I [4]: 0%
Nc1nc2c([N+](=O)[O-])cccc2n2c(=O)n(-c3ccc(O)cc3)nc12		446			Ki [3]: 1600 nM; I [6]: 45%
